The text below walks through data of patent US20090318423A1, “Ion Channel Modulators & Uses Thereof” (LECTUS THERAPEUTICS LIMITED, priority 2006, published 2009).

The assay addresses T1, Kv1.1 alpha subunit T1 domain binding to Kvbeta1 subunits (Rattus norvegicus, UniProt P63144).
T1 construct: expression of Kv1.1 alpha subunit T1 domains in E. coli; His; made in house; host or cells: E. coli (cleared lysates)
T1 sequence (P63144 1-401): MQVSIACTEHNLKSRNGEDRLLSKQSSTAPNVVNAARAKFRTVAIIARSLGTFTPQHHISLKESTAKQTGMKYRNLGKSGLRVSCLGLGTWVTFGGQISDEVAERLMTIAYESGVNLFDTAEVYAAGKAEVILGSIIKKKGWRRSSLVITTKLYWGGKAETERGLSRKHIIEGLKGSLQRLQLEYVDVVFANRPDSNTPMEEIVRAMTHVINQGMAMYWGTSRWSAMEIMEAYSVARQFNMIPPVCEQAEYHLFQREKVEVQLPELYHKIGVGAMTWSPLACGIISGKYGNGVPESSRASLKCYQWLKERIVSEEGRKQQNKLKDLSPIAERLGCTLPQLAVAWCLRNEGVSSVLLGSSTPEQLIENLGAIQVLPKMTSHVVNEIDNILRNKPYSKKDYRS
The experiment in a line: Kv1.x T1 / Kvbeta subunit protein-protein interaction assay (ELISA). The note with it: His-/FLAG-tagged Kv1.1 T1 domain lysate; biotin-tagged Kvbeta1 immobilised on streptavidin plates; anti-FLAG/HRP ELISA detection; read-out: IC50 for inhibition of Kv1.1 alpha subunit T1 binding to Kvbeta1 subunits. The protocol:
Compounds of Examples 3, 13-15 and 18-22 and 24-26 were examined for their ability to inhibit the interaction between Kv1.x channels and Kvbeta subunits using a protein-protein interaction assay.
Cloning of rat His- and biotin-tagged Kvbeta1 subunit cDNA, expression of Kvbeta1 subunits in E. coli and lysis of E. coli containing Kvbeta1 subunits were carried out as previously described (Kozlowski et al., patent application WO03078464).
Cloning of His- and FLAG-tagged Kv1.1 alpha subunit T1 domain cDNA, expression of Kv1.1 alpha subunit T1 domains in E. coli and lysis of E. coli containing Kv1.1 alpha subunit T1 domains were carried out as previously described (Kozlowski et al., patent application WO03078464).
To 96-well streptavidin coated microtitre plates, 100 μl of optimized concentrations of Kvbeta1 subunit cleared lysates (typically 1 in 10 dilutions in PBS-Tween) were added to each well. Plates were incubated at room temperature for 1 hour prior to use. Each well was then washed 3 times with 300 μl of PBS-Tween. Following the final wash, 80 μl of PBS-Tween was added to each well.
The test compounds (dissolved in a suitable vehicle) were added to the wells of a prepared 96-well microliter plate to achieve a range of concentrations to maintain a final assay volume of 100 μl. Plates were incubated for 30 minutes at room temperature.
After incubation with test compounds, 100 μl of Kv1.1 alpha subunit T1 domain cleared lysate (diluted 1 in 10 in PBS-Tween) was added to each well and incubated for 60 minutes at room temperature on a shaker. Unbound Kv1.1 alpha subunit T1 domain was removed by washing 3 times in 300 μl of PBS-Tween. Bound Kv1.1 alpha subunit T1 domain was estimated by using appropriately diluted mouse anti-FLAG antibody and anti-mouse IgG secondary antibody HRP conjugate using standard ELISA procedures. HRP was detected as previously described (Kozlowski et al., patent application WO03078464).
Data were analyzed using standard software packages. The test compounds were examined for their ability to inhibit the binding of Kv1.1 alpha subunit T1 domain to Kvbeta1 subunits to determine inhibition as a percentage of maximal binding in the absence of any test compound. Results are presented as the half maximal inhibitory concentration (IC50) for inhibition of Kv1.1 alpha subunit T1 binding to Kvbeta1 subunits.
In general terms: An ELISA detects its analyte on a solid surface through an enzyme-linked reagent.

The term IC50 denotes the concentration that inhibits the measured activity by half. Regarding `Cc1ccc(S(=O)(=O)NC(=O)Nc2ccc3c(c2)CCN(C(=O)NS(=O)(=O)c2ccc(C)cc2)C3)cc1` [Example 13, N-[(4-methylphenyl)sulfonyl]-6-({[(4-methylphenyl)sulfonyl]-carbamoyl}amino)-3,4-dihydroisoquinoline-2(1H)-carboxamide], the IC50 was determined as 30 µM.

For `Cc1ccc(S(=O)(=O)NC(=O)N2CCc3ccc(NS(=O)(=O)c4ccc(-c5ccccc5)cc4)cc3CC2)cc1` [Example 25, N-[(4-Methylphenyl)sulfonyl]-7-([(4-biphenyl)sulfonyl]amino)-1,2,4,5-tetrahydro-3H-3-benzazepine-3-carboxamide], the IC50 came out at 88 µM.

Regarding `Cc1ccc(S(=O)(=O)NC(=O)Nc2ccc3c(c2)CN(C(=O)NS(=O)(=O)c2ccc(C)cc2)C3)cc1` [Example 14, N-[(4-methylphenyl)sulfonyl]-5-[({[(4-methylphenyl)sulfonyl]amino}carbonyl)amino]-1,3-dihydro-2H-isoindole-2-carboxamide], the IC50 worked out at 16 µM.

For `Cc1ccc(S(=O)(=O)NC(=O)Nc2ccc3c(c2)CCN(C(=O)NS(=O)(=O)c2ccc(C)cc2)CC3)cc1` [Example 15, N-[(4-Methylphenyl)sulfonyl]-7-({[(4-methylphenyl)sulfonyl]carbamoyl}amino)-1,2,4,5-tetrahydro-3H-3-benzazepine-3-carboxamide], the IC50 is 59 µM.

In the case of “N-benzylaminocarbonyl-7-[({[(4-methylphenyl)sulfonyl]amino}carbonyl)amino]-1,2,4,5-tetrahydro-3H-3-benzazepine-3-carboxamide [Example 3]”, the IC50 turned out to be 50 µM.

For the compound `O=C(Nc1ccc2c(c1)CCN(C(=O)NS(=O)(=O)c1ccc(Cl)cc1)CC2)NS(=O)(=O)c1ccc(Cl)cc1` [Example 19, N-[(4-Chlorophenyl)sulfonyl]-7-({[(4-chlorophenyl)sulfonyl]carbamoyl}amino)-1,2,4,5-tetrahydro-3H-3-benzazepine-3-carboxamide], the IC50 was 51 µM.

As for `CC(C)(C)c1ccc(S(=O)(=O)NC(=O)Nc2ccc3c(c2)CCN(C(=O)NS(=O)(=O)c2ccc(C(C)(C)C)cc2)CC3)cc1` [Example 22, N-[(4-tert-Butylphenyl)sulfonyl]-7-({[(4-tert-butylphenyl)sulfonyl]carbamoyl}-amino)-1,2,4,5-tetrahydro-3H-3-benzazepine-3-carboxamide], the IC50 was 41 µM.

Take `COc1ccc(S(=O)(=O)NC(=O)Nc2ccc3c(c2)CCN(C(=O)NS(=O)(=O)c2ccc(OC)cc2)CC3)cc1` [Example 21, N-[(4-Methoxyphenyl)sulfonyl]-7-({[(4-methoxyphenyl)sulfonyl]-carbamoyl}amino)-1,2,4,5-tetrahydro-3H-3-benzazepine-3-carboxamide]: the IC50 worked out at 38 µM.

Regarding `Cc1cccc(S(=O)(=O)NC(=O)Nc2ccc3c(c2)CCN(C(=O)NS(=O)(=O)c2cccc(C)c2)CC3)c1` [Example 17, N-[(3-Methylphenyl)sulfonyl]-7-({[(3-methylphenyl)sulfonyl]carbamoyl}amino)-1,2,4,5-tetrahydro-3H-3-benzazepine-3-carboxamide], the IC50 was 47 µM.

Take `O=C(Nc1ccc2c(c1)CCN(C(=O)NS(=O)(=O)c1ccc(F)cc1)CC2)NS(=O)(=O)c1ccc(F)cc1` [Example 20, N-[(4-Fluorophenyl)sulfonyl]-7-({[(4-fluorophenyl)sulfonyl]carbamoyl}amino)-1,2,4,5-tetrahydro-3H-3-benzazepine-3-carboxamide]: the half-inhibitory concentration (IC50) was 191 µM.

In the case of `Cc1ccc(S(=O)(=O)NC(=O)N2CCc3ccc(NS(=O)(=O)c4ccc(C)cc4)cc3CC2)cc1` [Example 24, N-[(4-Methylphenyl)sulfonyl]-7-([(4-methylphenyl)sulfonyl]amino)-1,2,4,5-tetrahydro-3H-3-benzazepine-3-carboxamide], the IC50 worked out at 81 µM.

As to `O=C(Nc1ccc2c(c1)CCN(C(=O)NS(=O)(=O)c1ccccc1Cl)CC2)NS(=O)(=O)c1ccccc1Cl` [Example 18, N-[(2-Chlorophenyl)sulfonyl]-7-({[(2-chlorophenyl)sulfonyl]carbamoyl}amino)-1,2,4,5-tetrahydro-3H-3-benzazepine-3-carboxamide], the IC50 was determined as 181 µM.
